Laboratory results: patent US6653529B2, “Use of the maize X112 mutant ahas 2 gene and imidazolinone herbicides for selection of transgenic monocots, maize, rice and wheat plants resistant to the imidazolinone herbicides” (BASF Aktiengesellschaft, priority 2000, dated 2003)

Key:
[1] = test system: AHAS (acetohydroxyacid synthase) in extracts of Nortai, Line 26 and Line 29; assay: In vitro AHAS activity assay; format: biochemical, rice; conditions: Nt, Line 26, Line 29; FIG. 2
Protocol: Previously published procedures were used for the extraction and in vitro assay for AHAS activity (Singh et al. 1988). Lower portions of the shoots were used as the source of plant tissue for the assay. The desalted crude extracts were used for the in vitro enzyme assays. Acetolactate produced by the enzyme was converted to acetoin, which was measured by the Westerfield assay system.
In vitro AHAS assays were performed to understand the basis of herbicide tolerance in the transgenic plants. Previously published procedure was used for the extraction and in vitro assay for AHAS activity (Singh et al. 1988). The lower portions of the shoots were used as the source of plant tissue for the assay. The desalted crude extracts were used for the in vitro enzyme assays. Acetolactate produced by the enzyme was converted to acetoin, which was measured by the Westerfield assay system (Westerfield 1945). The specific activity of AHAS was about 30% higher in Line 26 (67 nmoles/mg protein/h) and Line 29 (64 nmoles/mg protein/h) compared to the activity in Nortai (Nt) (50 nmoles/mg protein/h).

[2] = test system: transgenic rice containing 35S/als transgene; conditions: cited from earlier work

SMILES: COc1nc(C)nc(NC(=O)NS(=O)(=O)c2ccccc2Cl)n1 [chlorsulfuron]
- inhibition of AHAS activity from all three lines [1]: inhibited in a similar manner
- differences in in vitro resistance ([2]; Arabidopsis ALS promoter replaced with CaMV35S promoter (Li et al. 1992)): 40 fold
- increase in in vitro resistance ([2]; transgenic rice containing 35S/als transgene (Li et al. 1992)): 200 fold
